Assays:
healthy subjects [1] = experiment: NEO-Five Factor Inventory (NEO-FFI); format: in vivo, human
Experimental: In some embodiments, the NEO-Five Factor Inventory (NEO-FFI) test is used to evaluate the safety and/or efficacy of psilocybin. The NEO-FFI evaluates 5 broad domains of personality—Neuroticism, Extroversion, Openness, Agreeableness and Conscientiousness.
The Neuroticism Extraversion Openness-Five Factor Inventory (NEO-FFI) and Symptom Checklist-90 Item (SCL-90) were administered. Details of the MMRM applied to the change from baseline scores for the NEO-FFI and SCL-90 are provided below in Table 2Q.

healthy subjects [2] = experiment: Social Value Orientation (SVO); format: in vivo, human
Source text: In some embodiments, the Social Value Orientation (SVO) test is utilized to evaluate the safety and/or efficacy of psilocybin. The SVO Slider Measure has 6 primary items with 9 secondary (and optional) items. All of the items have the same general form. Each item is a resource allocation choice over a well-defined continuum of joint payoffs.
The Pictorial Empathy Test (PET), Reading the Mind in the Eyes Test (RMET), Scale of Social Responsibility (SSR), Social Value Orientation (SVO), and Toronto Empathy Questionnaire (TEQ) were performed. Table 20 summarizes the results of the mixed model for repeated measures (MMRM) analysis for each of the aforementioned social cognition panel scales measured on Day 7 and Day 84 after study drug administration.

[3] = Day 7, psilocybin 10 mg - placebo
[4] = Day 7, psilocybin 25 mg - 10 mg
[5] = Day 7, psilocybin 25 mg - placebo
[6] = Day 84, psilocybin 10 mg - placebo
[7] = Day 84, psilocybin 25 mg - 10 mg
[8] = Day 84, psilocybin 25 mg - placebo

CN(C)CCc1c[nH]c2cccc(OP(=O)(O)O)c12 [Psilocybin, psilocybin]
NEO agreeableness change from baseline, LS mean (healthy subjects [1]; Day 7, psilocybin 10 mg): −0.2 | NEO conscientiousness change from baseline, LS mean (healthy subjects [1]; Day 7, psilocybin 10 mg): −0.1 | NEO extraversion change from baseline, LS mean (healthy subjects [1]; Day 7, psilocybin 10 mg): 0.3 | NEO neuroticism change from baseline, LS mean (healthy subjects [1]; Day 7, psilocybin 10 mg): 0.2 | NEO openness change from baseline, LS mean (healthy subjects [1]; Day 7, psilocybin 10 mg): 0.3 | NEO agreeableness change from baseline, LS mean difference (healthy subjects [1]; [3]): −0.4 | NEO conscientiousness change from baseline, LS mean difference (healthy subjects [1]; [3]): 0.4 | NEO extraversion change from baseline, LS mean difference (healthy subjects [1]; [3]): 0.4 | NEO neuroticism change from baseline, LS mean difference (healthy subjects [1]; [3]): −0.2 | NEO openness change from baseline, LS mean difference (healthy subjects [1]; [3]): 1.1 | NEO agreeableness change from baseline, LS mean (healthy subjects [1]; Day 7, psilocybin 25 mg): 0.1 | NEO conscientiousness change from baseline, LS mean (healthy subjects [1]; Day 7, psilocybin 25 mg): 0.1 | NEO extraversion change from baseline, LS mean (healthy subjects [1]; Day 7, psilocybin 25 mg): 0.3 | NEO neuroticism change from baseline, LS mean (healthy subjects [1]; Day 7, psilocybin 25 mg): 0.2 | NEO openness change from baseline, LS mean (healthy subjects [1]; Day 7, psilocybin 25 mg): 0.4 | NEO agreeableness change from baseline, LS mean difference (healthy subjects [1]; [4]): 0.4 | NEO conscientiousness change from baseline, LS mean difference (healthy subjects [1]; [4]): 0.3 | NEO extraversion change from baseline, LS mean difference (healthy subjects [1]; [4]): 0.1 | NEO neuroticism change from baseline, LS mean difference (healthy subjects [1]; [4]): −0.0 | NEO openness change from baseline, LS mean difference (healthy subjects [1]; [4]): 0.1 | NEO agreeableness change from baseline, LS mean difference (healthy subjects [1]; [5]): −0.1 | NEO conscientiousness change from baseline, LS mean difference (healthy subjects [1]; [5]): 0.7 | NEO extraversion change from baseline, LS mean difference (healthy subjects [1]; [5]): 0.5 | NEO neuroticism change from baseline, LS mean difference (healthy subjects [1]; [5]): 0.2 | NEO openness change from baseline, LS mean difference (healthy subjects [1]; [5]): 1.2 | NEO agreeableness change from baseline, LS mean (healthy subjects [1]; Day 84, psilocybin 10 mg): −0.9 | NEO conscientiousness change from baseline, LS mean (healthy subjects [1]; Day 84, psilocybin 10 mg): −1.3 | NEO extraversion change from baseline, LS mean (healthy subjects [1]; Day 84, psilocybin 10 mg): −0.9 | NEO neuroticism change from baseline, LS mean (healthy subjects [1]; Day 84, psilocybin 10 mg): 2.1 | NEO openness change from baseline, LS mean (healthy subjects [1]; Day 84, psilocybin 10 mg): 0.4 | NEO agreeableness change from baseline, LS mean difference (healthy subjects [1]; [6]): −0.8 | NEO conscientiousness change from baseline, LS mean difference (healthy subjects [1]; [6]): 0.2 | NEO extraversion change from baseline, LS mean difference (healthy subjects [1]; [6]): −0.7 | NEO neuroticism change from baseline, LS mean difference (healthy subjects [1]; [6]): 0.3 | NEO openness change from baseline, LS mean difference (healthy subjects [1]; [6]): 1.1 | NEO agreeableness change from baseline, LS mean (healthy subjects [1]; Day 84, psilocybin 25 mg): −0.9 | NEO conscientiousness change from baseline, LS mean (healthy subjects [1]; Day 84, psilocybin 25 mg): −0.1 | NEO extraversion change from baseline, LS mean (healthy subjects [1]; Day 84, psilocybin 25 mg): −0.7 | NEO neuroticism change from baseline, LS mean (healthy subjects [1]; Day 84, psilocybin 25 mg): 0.8 | NEO openness change from baseline, LS mean (healthy subjects [1]; Day 84, psilocybin 25 mg): 0.3 | NEO agreeableness change from baseline, LS mean difference (healthy subjects [1]; [7]): 0.1 | NEO conscientiousness change from baseline, LS mean difference (healthy subjects [1]; [7]): 1.2 | NEO extraversion change from baseline, LS mean difference (healthy subjects [1]; [7]): 0.2 | NEO neuroticism change from baseline, LS mean difference (healthy subjects [1]; [7]): −1.3 | NEO openness change from baseline, LS mean difference (healthy subjects [1]; [7]): −0.7 | NEO agreeableness change from baseline, LS mean difference (healthy subjects [1]; [8]): −0.7 | NEO conscientiousness change from baseline, LS mean difference (healthy subjects [1]; [8]): 1.4 | NEO extraversion change from baseline, LS mean difference (healthy subjects [1]; [8]): −0.5 | NEO neuroticism change from baseline, LS mean difference (healthy subjects [1]; [8]): −1.0 | NEO openness change from baseline, LS mean difference (healthy subjects [1]; [8]): 0.4 | SVO angle change from baseline (LS mean) (healthy subjects [2]; Day 7, psilocybin 10 mg): 1.8 | SVO type change from baseline (LS mean) (healthy subjects [2]; Day 7, psilocybin 10 mg): 0.1 | SVO angle change from baseline, LS mean difference (healthy subjects [2]; [3]): 3.4 | SVO type change from baseline, LS mean difference (healthy subjects [2]; [3]): 0.1 | SVO angle change from baseline (LS mean) (healthy subjects [2]; Day 7, psilocybin 25 mg): 0.5 | SVO type change from baseline (LS mean) (healthy subjects [2]; Day 7, psilocybin 25 mg): 0.1 | SVO angle change from baseline, LS mean difference (healthy subjects [2]; [4]): −1.3 | SVO type change from baseline, LS mean difference (healthy subjects [2]; [4]): −0.0 | SVO angle change from baseline, LS mean difference (healthy subjects [2]; [5]): 2.1 | SVO type change from baseline, LS mean difference (healthy subjects [2]; [5]): 0.1 | SVO angle change from baseline (LS mean) (healthy subjects [2]; Day 84, psilocybin 10 mg): 0.1 | SVO type change from baseline (LS mean) (healthy subjects [2]; Day 84, psilocybin 10 mg): 0.1 | SVO angle change from baseline, LS mean difference (healthy subjects [2]; [6]): 3.4 | SVO type change from baseline, LS mean difference (healthy subjects [2]; [6]): 0.1 | SVO angle change from baseline (LS mean) (healthy subjects [2]; Day 84, psilocybin 25 mg): −0.9 | SVO type change from baseline (LS mean) (healthy subjects [2]; Day 84, psilocybin 25 mg): 0.0 | SVO angle change from baseline, LS mean difference (healthy subjects [2]; [7]): −1.0 | SVO type change from baseline, LS mean difference (healthy subjects [2]; [7]): −0.0 | SVO angle change from baseline, LS mean difference (healthy subjects [2]; [8]): 2.4 | SVO type change from baseline, LS mean difference (healthy subjects [2]; [8]): 0.1
